This passage reports MM1S tumour growth and median overall survival results from patent US20220218835A1, “COMBINATION THERAPY” (priority 2019, published 2022).

The test system of the assay is MM1S tumours. In words: MM1S xenograft mouse model. It counts as in vivo, CB17 SCID mice.

Each structure is given as a SMILES string.

Procedure: A CB17 SCID mice (n=7 each group) with palpable MM1S tumour implants were randomized and treated with control vehicle, a single dose of M2 (0.4 mg/kg), six doses of btz (0.4 mg/kg), or combination of M2 and btz (M2+btz) for 2 weeks. […] D Tumour tissue sections from each group were immunohistochemically analyzed for Ki-67 (original magnification, ×400). […] Tumours were removed at the same treatment day from representative mice.
CB-17 SCID-mice were subcutaneously inoculated with 5.0×106 MM.1S cells in 100 μl of serum-free RPMI 1640 medium. When tumours were measurable approximately 3 weeks after MM-cell injection, mice (8 mice/group) were randomized and treated with vehicle alone, M2, btz, or M2 with btz. Tumour size was measured every third day in 2 dimensions using calipers, and tumour volume was calculated using the following formula: V=0.5a×b2, where “a” and “b” are the long and short diameter of the tumour, respectively. Animals were sacrificed when their tumours reached 2 cm^3.
Following 3d-treatment, tumour from each group was harvested and cell lysates were made for immunoblotting. […] Immunohistochemical images were taken on Zeiss Inverted Fluorescence Microscope for Ki67. […]
In vivo efficacy of sub-optimal doses M2 with btz was next evaluated in the MM1S xenograft mouse model. […]

Regarding `CC(C)C[C@H](NC(=O)[C@H](Cc1ccccc1)NC(=O)c1cnccn1)B(O)O` [btz, Bortezomib], the MM1S tumour growth entry (24d after treatment, single dose M2, 6 doses btz (0.4 mg/kg)) is given as “significantly delays”. For the setting “Kaplan-Meier, follow-up 177 d”, this compound showed a median overall survival of 35 days.
